According to patent US7829665B2 (priority 2005, dated 2010):
pIC50: −log10 of the molar value.

Biological target: T1, full-length NS3/NS4A-2 (HCV NS3 protease) (Hepatitis C virus genotype 1a, UniProt P27958)
T1 construct: Recombinant E. coli or Baculovirus full-length NS3 was diluted to 3.33 μM with assay buffer; made in house; host or cells: E. coli or baculovirus (BV) expression system
Experiment: NS3-NS4 protease assay / NS3 inhibition assay (RETS1 substrate, fluorescence kinetic read)
Format: biochemical
Conditions: recombinant E. coli or Baculovirus full-length NS3 with NS4A-2; read-out: NS3-NS4 IC50
Experimental: NS3 complex formation with NS4A-2.
Recombinant E. coli or Baculovirus full-length NS3 was diluted to 3.33 μM with assay buffer and transferred material to an eppendorf tube and place in water bath in 4° C. refrigerator. The appropriate amount of NS4A-2 to 8.3 mM in assay buffer was added to equal the volume of NS3 in step 2.1.1 (conversion factor—3.8 mg/272 μL assay buffer). The material was transferred to an eppendorf tube and place in water bath in 4° C. refrigerator.
After equilibration to 4° C., equal volumes of NS3 and NS4A-2 solutions were combined in an eppendorf tube, mix gently with a manual pipettor, and incubate mixture for 15 minutes in the 4° C. water bath. Final concentrations in the mixture are 1.67 μM NS3, 4.15 mM NS4A-2 (2485-fold molar excess NS4A-2).
After 15 minutes at 4° C., the NS3/NS4A-2 eppendorf tube was removed and place it in a room temperature water bath for 10 minutes. NS3/NS4A-2 was alliquoted at appropriate volumes and store at −80° C. (E. coli NS3 run at 2 nM in assay, aliquot at 25 μL. BV NS3 run at 3 nM in assay, aliquot at 30 μL).
Sample compounds were dissolved to 10 mM in DMSO then diluted to 2.5 mM (1:4) in DMSO. Typically, compounds were added to an assay plate at 2.5 mM concentration, yielding upon dilution a starting concentration of 50 microM in the assay inhibition curve. Compounds were serial diluted in assay buffer to provide test solutions at lower concentrations.
The E. coli. NS3/NS4A-2 was diluted to 4 nM NS3 (1:417.5 of 1.67 μM stock−18 μL 1.67 μM stock+7497 μL assay buffer). The BV NS3/NS4A-2 was diluted to 6 nM NS3 (1:278.3 of 1.67 μM stock−24 μL 1.67 μM stock+6655 μL assay buffer). Using the manual multichannel pipettor, careful not to introduce bubbles into the plate, add 50 μL assay buffer to wells A01-H01 of a black Costar 96-well polypropylene storage plate.
Using the manual multichannel pipettor, careful not to introduce bubbles into the plate, add 50 μL of diluted NS3/NS4A-2 from step 2.2.6 to wells A02-H12 of plate in step 2.2.7. Using the manual multichannel pipettor, careful not to introduce bubbles into the plate, transfer 25 μL of the wells in drug dilution plate in step 2.2.5 to corresponding wells in assay plate in step 2.2.8. Change tips on multichannel pipettor for each row of compounds transferred. Using the manual multichannel pipettor, careful not to introduce bubbles into the plate, mix the wells from the assay plate in step 2.2.9 by aspirating and dispensing 35 μL of the 75 μL in each well five times. Change tips on multichannel pipettor for each row of wells mixed. Cover plate with a polystyrene plate lid and pre-incubate the plate from step 2.2.10 containing NS3 protease and sample compounds 10 minutes at room temperature. While plate from step 2.2.11 is pre-incubating, dilute RETS1 substrate in a 15 mL polypropylene centrifuge tube. Dilute RETS1 substrate to 8 μM (1:80.75 of 646 μM stock−65 μL 646 μM stock+5184 μL assay buffer).
After the plate in step is done pre-incubating, and using the manual multichannel, add 25 μL of substrate to all wells on the plate. Quickly mix the plate as in step 2.2.10, mixing 65 μL of the 100 μL in the wells.
Read the plate in kinetic mode on the Molecular Devices SpectraMax Gemini XS plate reader. Reader settings: Read time: 30 minutes, Interval: 36 seconds, Reads: 51, Excitation λ: 335 nm, Emission λ: 495 nm, cutoff: 475 nm, Automix: off, Calibrate: once, PMT: high, Reads/well: 6, Vmax pts: 21 or 28/51 depending on length of linearity of reaction
IC50 s are determined using a four parameter curve fit equation, and converted to Ki's using the following Km's: • Full-length E. coli NS3—2.03 μM • Full-length BV NS3—1.74 μM where Ki=IC50/(1+[S]/Km)) • Quantitation by ELISA of the selectable marker protein, Neomycin phosphotransferase II (NPTII) in the HCV Sub-Genomic Replicon, GS4.3

T1 sequence (P27958 1027-1657): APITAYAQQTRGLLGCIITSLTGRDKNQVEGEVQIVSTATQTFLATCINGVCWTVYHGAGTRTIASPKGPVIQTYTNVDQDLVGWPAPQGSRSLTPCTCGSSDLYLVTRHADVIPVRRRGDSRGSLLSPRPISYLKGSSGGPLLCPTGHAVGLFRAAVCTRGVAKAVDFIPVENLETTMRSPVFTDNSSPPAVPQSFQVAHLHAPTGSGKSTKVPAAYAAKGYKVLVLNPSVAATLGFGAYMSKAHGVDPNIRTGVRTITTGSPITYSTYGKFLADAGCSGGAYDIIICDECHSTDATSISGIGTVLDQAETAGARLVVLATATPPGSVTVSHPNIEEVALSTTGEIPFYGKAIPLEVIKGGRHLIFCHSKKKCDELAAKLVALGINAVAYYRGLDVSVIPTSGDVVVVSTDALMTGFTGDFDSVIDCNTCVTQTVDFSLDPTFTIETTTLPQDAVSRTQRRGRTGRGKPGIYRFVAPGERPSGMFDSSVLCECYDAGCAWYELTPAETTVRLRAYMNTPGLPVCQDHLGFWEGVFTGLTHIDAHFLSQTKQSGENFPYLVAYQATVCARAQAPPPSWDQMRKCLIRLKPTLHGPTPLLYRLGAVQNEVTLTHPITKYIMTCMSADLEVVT

`CC(C)(C)C(O)C(=O)N[C@H]1CCCCC/C=C\[C@@H]2C[C@@]2(C(=O)NS(=O)(=O)C2CC2)NC(=O)[C@@H]2C[C@@H](OC(=O)N3Cc4cccc(F)c4C3)CN2C1=O` (single isomer, unassigned) [Compound 248] and `CC(C)(C)OC(=O)N[C@H]1CCCCC/C=C\[C@@H]2C[C@@]2(CNS(=O)(=O)C2CC2)NC(=O)[C@@H]2C[C@@H](OC(=O)N3Cc4cccc(F)c4C3)CN2C1=O` [Compound 154] cannot be ordered by pIC50: over 7.00 for the first, over 5.00 for the second.

`CC(C)S(=O)(=O)NC(=O)[C@@]12C[C@H]1/C=C\CCCCC[C@H](NC(=O)OC1CCCC1)C(=O)N1C[C@H](OC(=O)N3CCc4ccccc4C3)C[C@H]1C(=O)N2` [Compound 118] and `CS(=O)(=O)NC(=O)[C@@]12C[C@H]1/C=C\CCCCC[C@H](NC(=O)OC1CCCC1)C(=O)N1C[C@H](OC(=O)N3CCc4ccccc4C3)C[C@H]1C(=O)N2` [Compound 119] cannot be ordered by pIC50: over 7.00 for the first, over 7.00 for the second.

`COc1ccc(S(=O)(=O)NC(=O)[C@@]23C[C@H]2/C=C\CCCCC[C@H](NC(=O)OC2CCCC2)C(=O)N2C[C@H](OC(=O)N4CCc5ccccc5C4)C[C@H]2C(=O)N3)cc1` [Compound 120] and `COc1cccc(S(=O)(=O)NC(=O)[C@@]23C[C@H]2/C=C\CCCCC[C@H](NC(=O)OC2CCCC2)C(=O)N2C[C@H](OC(=O)N4CCc5ccccc5C4)C[C@H]2C(=O)N3)c1` [Compound 188] cannot be ordered by pIC50: over 7.00 for the first, over 7.00 for the second.

`CCOC(=O)[C@@]12C[C@H]1/C=C\CCCCC[C@H](NC(=O)OC(C)(C)C)C(=O)N1C[C@H](OC(=O)N3Cc4ccc(OCCN5CCOCC5)cc4C3)C[C@H]1C(=O)N2` [Compound 124] and `CCOC(=O)[C@@]12C[C@H]1/C=C\CCCCC[C@H](NC(=O)OC1CCCC1)C(=O)N1C[C@H](OC(=O)N3Cc4ccc(OCCN5CCOCC5)cc4C3)C[C@H]1C(=O)N2` [Compound 129] cannot be ordered by pIC50: over 5.00 for the first, over 5.00 for the second.

`CCOC(=O)[C@@]12C[C@H]1/C=C\CCCCC[C@H](NC(=O)OC(C)(C)C)C(=O)N1C[C@H](OC(=O)N3Cc4ccc(OCCNC(C)C)cc4C3)C[C@H]1C(=O)N2` [Compound 125] and `CCOC(=O)[C@@]12C[C@H]1/C=C\CCCCC[C@H](NC(=O)OC(C)(C)C)C(=O)N1C[C@H](OC(=O)N3Cc4ccc(OCCN(C)C)cc4C3)C[C@H]1C(=O)N2` [Compound 127] cannot be ordered by pIC50: over 5.00 for the first, over 5.00 for the second.

`CCOC(=O)[C@@]12C[C@H]1/C=C\CCCCC[C@H](N)C(=O)N1C[C@H](OC(=O)N3Cc4ccc(OCCN5CCOCC5)cc4C3)C[C@H]1C(=O)N2` [Compound 126] and `CCOC(=O)[C@@]12C[C@H]1/C=C\CCCCC[C@H](N)C(=O)N1C[C@H](OC(=O)N3Cc4ccc(OCCNC(C)C)cc4C3)C[C@H]1C(=O)N2` [Compound 128] cannot be ordered by pIC50: under 5.00 for the first, under 5.00 for the second.

`C[C@H](NC(=O)O[C@@H]1C[C@H]2C(=O)N[C@]3(C(=O)O)C[C@H]3/C=C\CCCCC[C@H](NC(=O)OC(C)(C)C)C(=O)N2C1)c1ccc(F)cn1` [Compound 147] and `C[C@@H](NC(=O)O[C@@H]1C[C@H]2C(=O)N[C@]3(C(=O)O)C[C@H]3/C=C\CCCCC[C@H](NC(=O)OC(C)(C)C)C(=O)N2C1)c1ccc(F)cn1` [Compound 148] cannot be ordered by pIC50: under 5.00 for the first, under 5.00 for the second.

Going from `CC(C)(C)OC(=O)N[C@H]1CCCCC/C=C\[C@@H]2C[C@@]2(C(=O)O)NC(=O)[C@@H]2C[C@@H](OC(=O)NCc3ccc(F)cn3)CN2C1=O` [Compound 151] to `CC(C)(C)OC(=O)N[C@H]1CCCCC/C=C\[C@@H]2C[C@@]2(CO)NC(=O)[C@@H]2C[C@@H](OC(=O)N3Cc4cccc(F)c4C3)CN2C1=O` [Compound 153, (2R,6S,13aS,14aR,16aS,Z)-6-(tert-botoxycarbonylamino)-14a-(hydroxymethyl)-5,16-dioxo-1,2,3,5,6,7,8,9,10,11,13a,14,14a,15,16,16a-hexadecahydrocyclopropa[e]pyrrolo[1,2-α][1,4]dizacyclopentadecin-2-yl-4-fluoroisoindoline-2-carboxylate], the pIC50 falls from over 5.00 to under 5.00.

`CN(C)c1ccc(S(=O)(=O)NC(=O)[C@@]23C[C@H]2/C=C\CCCCC[C@H](NC(=O)OC2CCCC2)C(=O)N2C[C@H](OC(=O)N4CCc5ccccc5C4)C[C@H]2C(=O)N3)cc1` [Compound 183] and `Cc1noc(C)c1S(=O)(=O)NC(=O)[C@@]12C[C@H]1/C=C\CCCCC[C@H](NC(=O)OC1CCCC1)C(=O)N1C[C@H](OC(=O)N3CCc4ccccc4C3)C[C@H]1C(=O)N2` [Compound 187] cannot be ordered by pIC50: over 7.00 for the first, over 7.00 for the second.

`O=C1N[C@]2(C(=O)NS(=O)(=O)C3CC3)C[C@H]2/C=C\CCCCC[C@H](Nc2c(N3C4CCC3CC4)c(=O)c2=O)C(=O)N2C[C@H](OC(=O)N3Cc4cccc(F)c4C3)C[C@@H]12` [Compound 199] and `N[C@H]1CCCCC/C=C\[C@@H]2C[C@@]2(C(=O)NS(=O)(=O)Nc2ccc(Cl)cc2)NC(=O)[C@@H]2C[C@@H](OC(=O)N3Cc4ccccc4C3)CN2C1=O` [Compound 203] cannot be ordered by pIC50: over 7.00 for the first, over 6.00 for the second.

`CC(C)(C)OC(=O)N[C@H]1CCCCC/C=C\[C@@H]2C[C@@]2(C(=O)NS(=O)(=O)C2(C)CC2)NC(=O)[C@@H]2CCCN2C1=O` [Compound 300, (1S,4R,6S,14S) tert-butyl 4-Cyclopropanesulfonylaminocarbonyl-2,15-dioxo-3,16-diaza-tricyclo[14.3.0.0^4,6]nonadec-7-ene-14-yl carbamate] and `COCC1(S(=O)(=O)NC(=O)[C@@]23C[C@H]2/C=C\CCCCC[C@H](NC(=O)OC(C)(C)C)C(=O)N2CCC[C@H]2C(=O)N3)CC1` [Compound 302] cannot be ordered by pIC50: over 6.00 for the first, over 5.00 for the second.

`CC(C)(C)OC(=O)N[C@H]1CCCCC/C=C\[C@@H]2C[C@@]2(C(=O)NS(=O)(=O)C2(Cc3ccccc3)CC2)NC(=O)[C@@H]2CCCN2C1=O` [Compound 301] and `CCCC1(S(=O)(=O)NC(=O)[C@@]23C[C@H]2/C=C\CCCCC[C@H](NC(=O)OC(C)(C)C)C(=O)N2CCC[C@H]2C(=O)N3)CC1` [Compound 304] cannot be ordered by pIC50: over 5.00 for the first, over 5.00 for the second.

`CC(C)(C)OC(=O)N[C@H]1CCCCC/C=C\[C@@H]2C[C@@]2(C(=O)NS(=O)(=O)C(C)(C)C)NC(=O)[C@@H]2CCCN2C1=O` [Compound 303] and `Cc1noc(C)c1S(=O)(=O)NC(=O)[C@@]12C[C@H]1/C=C\CCCCC[C@H](NC(=O)OC(C)(C)C)C(=O)N1CCC[C@H]1C(=O)N2` [Compound 308] cannot be ordered by pIC50: under 5.00 for the first, under 5.00 for the second.

`C=CCC1(S(=O)(=O)NC(=O)[C@@]23C[C@H]2/C=C\CCCCC[C@H](NC(=O)OC(C)(C)C)C(=O)N2CCC[C@H]2C(=O)N3)CC1` [Compound 305] and `CC(C)(C)OC(=O)N[C@H]1CCCCC/C=C\[C@@H]2C[C@@]2(C(=O)NS(=O)(=O)c2cc3ccccc3s2)NC(=O)[C@@H]2CCCN2C1=O` [Compound 307] cannot be ordered by pIC50: over 5.00 for the first, over 5.00 for the second.

First: CCOc1ccc2sc(S(=O)(=O)NC(=O)[C@@]34C[C@H]3/C=C\CCCCC[C@H](NC(=O)OC(C)(C)C)C(=O)N3CCC[C@H]3C(=O)N4)nc2c1 [Compound 306]
Second: COc1c(C(=O)O)csc1S(=O)(=O)NC(=O)[C@@]12C[C@H]1/C=C\CCCCC[C@H](NC(=O)OC(C)(C)C)C(=O)N1CCC[C@H]1C(=O)N2 [Compound 311]
The pIC50 of the first is lower: under 5.00 for the first, over 5.00 for the second. The second is the more potent here.

Compared with `CC(C)(C)OC(=O)N[C@H]1CCCCC/C=C\[C@@H]2C[C@@]2(C(=O)NS(=O)(=O)c2cccc3c(Cl)cccc23)NC(=O)[C@@H]2CCCN2C1=O` [Compound 309], `COC(=O)c1csc(S(=O)(=O)NC(=O)[C@@]23C[C@H]2/C=C\CCCCC[C@H](NC(=O)OC(C)(C)C)C(=O)N2CCC[C@H]2C(=O)N3)c1OC` [Compound 310] is lower in pIC50: over 5.00 for the first, under 5.00 for the second.
